Assay results published in patent US9751884B2, “N-aryl unsaturated fused ring tertiary amine compounds, preparation method and anti-tumor applications thereof” (Institute of Pharmacology and Toxicology Academy of …, priority 2012, dated 2017).
≈ marks a conversion by molar mass, not a printed value.

Experiments:
A549 lung cancer cells = assay: Experiments of inhibiting growth of cancer cells, SRB method, A549; assay type: cell-based; conditions: Homo sapiens, 48 h with drug
Method: (§1) The cells were placed in 2.5 cm culture dish and cultured at 37° C. in wet air containing 5% CO2. Cell lines grew adhering to wall. The preparation and dilution of samples as well as process for inoculating them to cellular fluid were performed under aseptic condition. The test samples usually were dissolved in DMSO, stored at −70° C. […] GI50 values about inhibiting growth of cancer cells were determined by SRB (sulfonyl rhodamine B) method. Anticancer drug paclitaxel was used as positive control.
(§2) A549: lung cancer cells; DU145: prostate cancer cells; KB: nasopharyngeal cancer cells; KB-VIN: drug-resistant nasopharyngeal cancer cells. GI50 value was the concentration that causes 50% cancer cells growth inhibition, showing anticancer activity.

[1] = test system: DU145 prostate cancer cells; assay: Experiments of inhibiting growth of cancer cells, SRB method, DU145; assay type: cell-based; conditions: Homo sapiens, DU-145, 48 h with drug
Method: as §1, §2

GI50 (A549 lung cancer cells) [µg/mL]	GI50 [1] [µg/mL]	melting point [°C]	Structure (SMILES)
0.0056 (≈ 0.0183 µM)	0.0046 (≈ 0.0151 µM)		COc1ccc2c(c1)CCCN2c1nc(C)nc2ccccc12 [Compound 2, N^1-[4-(2-methyl)quinazolinyl]-6-methoxy-1,2,3,4-tetrahydroquinoline]
0.0088 (≈ 0.0275 µM)	0.0075 (≈ 0.0234 µM)		CNc1nc(N2CCCc3cc(OC)ccc32)c2ccccc2n1 [Compound 4, N^1-[4-(2-methylamino)quinazolinyl]-6-methoxy-1,2,3,4-tetrahydro-quinoline]
0.061 (≈ 0.211 µM)	0.051 (≈ 0.176 µM)	136 to 138	Cc1ccc2c(c1)CCCN2c1nc(C)nc2ccccc12 [Compound 6, N^1-[4-(2-methyl)quinazolinyl]-6-methyl-1,2,3,4-tetrahydroquinoline]
0.075 (≈ 0.212 µM)	0.06 (≈ 0.169 µM)	129 to 130	Cc1nc(N2CCCc3cc(Br)ccc32)c2ccccc2n1 [Compound 7, N^1-[4-(2-methyl)quinazolinyl]-6-bromo-1,2,3,4-tetrahydroquinoline]
0.0679 (≈ 0.233 µM)	0.059 (≈ 0.203 µM)	116 to 117	COc1ccc2c(c1)CCN2c1nc(C)nc2ccccc12 [Compound 8, 2-Methyl-4-[N^1-(5-methoxy)indolinyl]quinazoline]
5.34 (≈ 16.7 µM)	4.76 (≈ 14.9 µM)	125 to 127	COc1ccc2c(c1)CCCN(c1nc(C)nc3ccccc13)C2 [Compound 9, N^2-[4-(2-methyl)quinazolinyl]-7-methoxy-2,3,4,5-tetrahydro-1H-benzo[c]azepine]
0.065 (≈ 0.191 µM)	0.056 (≈ 0.165 µM)	102 to 103	COc1ccc2c(c1)CCCCN2c1nc(Cl)nc2ccccc12 [Compound 10, N^1-[4-(2-chloro)quinazolinyl]-7-methoxy-2,3,4,5-tetrahydro-1H-benzo[b]-azepine]
0.006 (≈ 0.0187 µM)	0.006 (≈ 0.0187 µM)		COc1ccc2c(c1)C(O)CCN2c1nc(C)nc2ccccc12 (stereo not shown) [Compound 11, N^1-[4-(2-methyl)quinazolinyl]-4-hydroxyl-6-methoxy-1,2,3,4-tetrahydroquinoline]
0.065 (≈ 0.176 µM)	0.06 (≈ 0.162 µM)	70 to 72	CCOC1CCN(c2nc(Cl)nc3ccccc23)c2ccc(OC)cc21 (stereo not shown) [Compound 12, N^1-[4-(2-chloro)quinazolinyl]-4-ethoxy-6-methoxy-1,2,3,4-tetrahydroquinoline]
0.065 (≈ 0.198 µM)	0.055 (≈ 0.168 µM)	173 to 174	COc1ccc2c(c1)OCCN2c1nc(Cl)nc2ccccc12 [Compound 13, N^4-[4-(2-chloro)quinazolinyl]-7-methoxy-3,4-dihydro-2H-benzo[b][1,4]oxazine]
4.71 (≈ 14.5 µM)	7.77 (≈ 23.9 µM)	192 to 194	COc1cc2c(cc1F)N(c1nc(C)nc3ccccc13)CCO2 [Compound 14, N^4-[4-(2-methyl)quinazolinyl]-6-fluoro-7-methoxy-3,4-dihydro-2H-benzo[b][1,4]oxazine]
0.0091 (≈ 0.0268 µM)	0.0106 (≈ 0.0312 µM)	218 to 220	COc1ccc2c(c1)C(=O)CCN2c1nc(Cl)nc2ccccc12 [Compound 18, N^1-[4-(2-chloro)quinazolinyl]-6-methoxy-2,3-dihydroquinolin-4(1H)-one]
0.001 (≈ 0.00312 µM)	0.0007 (≈ 0.00219 µM)		COc1ccc2c(c1)NC(=O)CN2c1nc(C)nc2ccccc12 [Compound 19, N^4-[4-(2-methyl)quinazolinyl]-7-methoxy-3,4-dihydroquinoxalin-2(1H)-one]
0.0138 (≈ 0.0453 µM)	0.0115 (≈ 0.0378 µM)		COc1ccc2c(c1)CCCN2c1cc(C)nc2ccccc12 [Compound 20, 6-methoxy-2′-methyl-3,4-dihydro-2H-1,4′-biquinoline]
0.421 (≈ 1.12 µM)	0.483 (≈ 1.28 µM)		COC(=O)c1cc(Br)cc(N2CCCc3cc(OC)ccc32)c1 [Compound 26, N^1-[(3-bromo-5-methoxycarbonyl)phenyl]-6-methoxy-1,2,3,4-tetrahydroquinoline]
		175 to 177	COc1ccc2c(c1)CCCN2c1cc(Br)cc(C(=O)O)c1 [Compound 27, N^1-[(3-bromo-5-carboxyl)phenyl]-6-methoxy-1,2,3,4-tetrahydro-quinoline]
0.14 (≈ 0.373 µM)	0.209 (≈ 0.557 µM)	166 to 167	CNC(=O)c1cc(Br)cc(N2CCCc3cc(OC)ccc32)c1 [Compound 28, N^1-[(3-bromo-5-methylaminoacyl)phenyl]-6-methoxy-1,2,3,4-tetrahydroquinoline]
0.067 (≈ 0.167 µM)	0.062 (≈ 0.154 µM)		COc1ccc2c(c1)CCCN2c1cc(Br)cc(C(=O)NC2CC2)c1 [Compound 29, N^1-[3-bromo-5-(N-cyclopropylaminoacyl)phenyl]-6-methoxy-1,2,3,4-tetrahydroquinoline]
0.077 (≈ 0.265 µM)	0.06 (≈ 0.206 µM)	179 to 181	COc1ccc2c(c1)CCCN2c1cc(Cl)nc(N)n1 [Compound 30, N^1-[4-(2-amino-6-chloro)pyrimidinyl]-6-methoxy-1,2,3,4-tetrahydro-quinoline]
0.0063 (≈ 0.0188 µM)	0.0072 (≈ 0.0215 µM)		COc1ccc2c(c1)N(C)C(=O)CN2c1nc(C)nc2ccccc12 [Compound 31, N^1-methyl-N^4-[4-(2-methyl)quinazolinyl]-7-methoxy-3,4-dihydro-quinoxalin-2(1H)-one]
0.056 (≈ 0.167 µM)	0.051 (≈ 0.153 µM)		COc1ccc2c(c1)CCCN2c1nc(N(C)C)nc2ccccc12 [Compound 32, 2-(N-methylmethylamino)-4-(6-methoxy-1,2,3,4-tetrahydro-1-quinolyl)quinazoline]
0.0057 (≈ 0.0165 µM)	0.0045 (≈ 0.013 µM)		COc1ccc2c(c1)CCCN2c1nc(NC2CC2)nc2ccccc12 [Compound 33, 2-cyclopropylamino-4-(6-methoxy-1,2,3,4-tetrahydro-1-quinolyl) quinazoline]
0.501 (≈ 1.34 µM)	0.483 (≈ 1.29 µM)		COc1ccc2c(c1)CCCN2c1nc(NC2CCCC2)nc2ccccc12 [Compound 34, 2-cyclopentylamino-4-(6-methoxy-1,2,3,4-tetrahydro-1-quinolyl) quinazoline]
0.0058 (≈ 0.0159 µM)	0.0073 (≈ 0.02 µM)		COc1ccc2c(c1)CCCN2c1nc(NCCCO)nc2ccccc12 [Compound 35, 2-(3-hydroxylpropylamino)-4-(6-methoxy-1,2,3,4-tetrahydro-1-quinolyl)quinazoline]
5.15 (≈ 17.8 µM)	4.27 (≈ 14.8 µM)		COc1ccc2c(c1)CCCN2c1cccc2ccccc12 [Compound 37, 4-(6-methoxy-1,2,3,4-tetrahydro-1-quinolyl)naphthalene]
0.0065 (≈ 0.00761 µM)	0.0053 (≈ 0.00621 µM)		CC(=O)O[C@H]1C(=O)[C@@]2(C)[C@H]([C@H](OC(=O)c3ccccc3)[C@]3(O)C[C@H](OC(=O)[C@H](O)[C@@H](NC(=O)c4ccccc4)c4ccccc4)C(C)=C1C3(C)C)[C@]1(OC(C)=O)CO[C@@H]1C[C@@H]2O [Paclitaxel, paclitaxel, reference compound]

Structure (SMILES)	GI50 (A549 lung cancer cells) [µg/mL]	GI50 [1] [µg/mL]	melting point [°C]
COc1ccc2c(c1)CCCN2c1nc(Cl)nc2ccccc12 [Compound 1, N^1-[4-(2-chloro)quinazolinyl]-6-methoxy-1,2,3,4-tetrahydroquinoline]	0.0006 (≈ 0.00184 µM)	0.0005 (≈ 0.00153 µM)	
COc1ccc2c(c1)CCCN2c1nc(OC)nc2ccccc12 [Compound 3, N^1-[4-(2-methoxy)quinazolinyl]-6-methoxy-1,2,3,4-tetrahydro-quinoline]	0.0077 (≈ 0.024 µM)	0.0069 (≈ 0.0215 µM)	161 to 163
